Measured values taken from patent publication US7960568B2, “Heterocyclyl-substituted sulfonamides for the treatment of cognitive or food ingestion related disorders” (Laboratorios Del Dr. Esteve, S.A., priority 2007, dated 2011).
Several values for one entry are separate records, joined by “and”; a condition that tells them apart may be missing. Identical values can stand only once.

Molecular target: T1, 5HT6 human recombinant receptor (Homo sapiens, UniProt P50406)
T1 construct: purchased Receptor Biology; host or cells: HEK-293 cell membranes
Test: Binding with serotonin receptor 5HT6 ([3H]-LSD radioligand, HEK-293 cell membranes)
Conditions: [3H]-LSD 2.7 nM, HEK-293 membranes; for inhibition at 0.01 µM: 10 nM compound; for inhibition at 0.01 µM / inhibition at 0.1 µM: 60 min, 37° C.; for inhibition at 0.1 µM: 100 nM compound; for Ki: non-linear regression EBDA/LIGAND
Description: Biological Assays Binding with Serotonin Receptor 5HT6
Cell membranes of HEK-293 cells expressing the 5HT6 human recombinant receptor were supplied by Receptor Biology. In said membranes the receptor concentration is 2.18 pmol/mg protein and the protein concentration is 9.17 mg/ml. The experimental protocol follows the method of B. L. Roth et al. [B. L. Roth, S. C. Craigo, M. S. Choudhary, A. Uluer, F. J. Monsma, Y. Shen, H. Y. Meltzer, D. R. Sibley: Binding of Typical and Atypical Antipsychotic Agents to 5-Hydroxytryptamine-6 and Hydroxytriptamine-7 Receptors. The Journal of Pharmacology and Experimental Therapeutics, 1994, 268, 1403] with slight changes. The commercial membrane is diluted (1:40 dilution) with the binding buffer: 50 mM Tris-HCl, 10 mM MgCl2, 0.5 mM EDTA (pH 7.4). The radioligand used is [^3H]-LSD at a concentration of 2.7 nM with a final volume of 200 μl. incubation is initiated by adding 100 μl of membrane suspension, (≈22.9 μg membrane protein), and is prolonged for 60 minutes at a temperature of 37° C. The incubation is ended by fast filtration in a Brandel Cell Harvester through fiber glass filters made by Schleicher & Schuell GF 3362 pretreated with a solution of polyethylenimine at 0.5%. The filters are washed three times with three milliliters of buffer Tris-HCl 50 mM pH 7.4. The filters are transferred to flasks and 5 ml of Ecoscint H liquid scintillation cocktail are added to each flask. The flasks are allowed to reach equilibrium for several hours before counting with a Wallac Winspectral 1414 scintillation counter. Non-specific binding is determined in the presence of 100 μM of serotonin. Tests were made in triplicate. The inhibition constants (Ki, nM) were calculated by non-linear regression analysis using the program EBDA/LIGAND [Munson and Rodbard, Analytical Biochemistry, 1980, 107, 220].

T1 sequence (P50406 whole entry): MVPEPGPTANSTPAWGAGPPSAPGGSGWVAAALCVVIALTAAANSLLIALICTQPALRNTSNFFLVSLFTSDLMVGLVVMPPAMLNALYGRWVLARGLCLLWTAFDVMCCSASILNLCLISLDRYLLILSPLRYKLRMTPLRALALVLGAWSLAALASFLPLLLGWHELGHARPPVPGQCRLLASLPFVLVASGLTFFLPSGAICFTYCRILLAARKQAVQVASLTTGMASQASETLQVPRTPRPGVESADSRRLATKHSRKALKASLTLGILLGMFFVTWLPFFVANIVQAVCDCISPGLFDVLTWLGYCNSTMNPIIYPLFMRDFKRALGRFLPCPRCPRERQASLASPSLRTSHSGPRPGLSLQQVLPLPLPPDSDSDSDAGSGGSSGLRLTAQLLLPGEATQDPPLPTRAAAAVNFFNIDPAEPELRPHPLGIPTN

Structure (SMILES)	inhibition at 0.01 µM	inhibition at 0.1 µM	Ki
CCNCCc1c[nH]c2ccc(NS(=O)(=O)c3sc4ccc(Cl)cc4c3C)cc12 [Example 1, 5-Chloro-3-methyl-benzo[b]thiophene-2-sulfonic acid [3-(2-ethylamino-ethyl)-1H-indol-5-yl]-amide]	82.7%	91.4%	0.67 nM
CNCCc1c[nH]c2ccc(NS(=O)(=O)c3sc4ccc(Cl)cc4c3C)cc12 [Example 2, 5-Chloro-3-methyl-benzo[b]thiophene-2-sulfonic acid [3-(2-methylamino-ethyl)-1H-indol-5-yl]-amide]	62.5%	80.3%	2 nM
CNCCc1c[nH]c2ccc(NS(=O)(=O)c3c(Cl)nc4sccn34)cc12 [Example 3, 6-Chloro-imidazo[2,1-b]thiazole-5-sulfonic acid [3-(2-methylamino-ethyl)-1H-indol-5-yl]-amide]	47.3%	71.8%	4.7 nM and 3.2 nM
CCNCCc1c[nH]c2ccc(NS(=O)(=O)c3c(Cl)nc4sccn34)cc12 [Example 4, 6-Chloro-imidazo[2,1-b]thiazole-5-sulfonic acid [3-(2-ethylamino-ethyl)-1H-indol-5-yl]-amide]	61.8%	81.7%	6.4 ± 1 nM
Cc1c(S(=O)(=O)Nc2ccc3[nH]cc(CCN)c3c2)sc2ccc(Cl)cc12 [Example 5, 5-Chloro-3-methyl-benzo[b]thiophene-2-sulfonic acid [3-(2-amino-ethyl)-1H-indol-5-yl]-amide]	63.5%	85%	11.7 nM
NCCc1c[nH]c2ccc(NS(=O)(=O)c3c(Cl)nc4sccn34)cc12 [Example 6, 6-Chloro-imidazo[2,1-b]thiazole-5-sulfonic acid [3-(2-amino-ethyl)-1H-indol-5-yl]-amide]	75.7%	92.3%	3.6 ± 1.4 nM
